# Data from patent US12226479B2, “Methods and compositions of use of CD8+ tumor infiltrating lymphocyte subtypes and gene signatures thereof” (THE GENERAL HOSPITAL CORPORATION, priority 2017, dated 2025).
# Test system: B16-F10
# Assay: Transplantable B16-F10 melanoma mouse model: tumor growth and survival under CD39 inhibitor and checkpoint antibodies
# Excerpt: A schematic summary of the therapy regimen used in the transplantable B16-F10 mouse model (described in Methods). Mice were divided into four groups (n=10 per group): untreated (vehicle control), anti-TIM3, CD39 inhibitor (CD39i, using POM-1 small molecule) and anti-TIM3 in combination with CD39i. FIG. 26D. Box plots showing the kinetics of tumor growth between the different groups of mice on days +4, +7, +11, +14 and +18 post tumor transplantation. Data in box plots are means±SEM. P-value was determined by unpaired-student's t-test. FIG. 26E. Mean tumor volumes for all 4 groups are shown, means±SEM. FIG. 26F. Survival at day 30 of B16-F10 tumor-bearing mice for all 4 groups. Log-rank P-value is shown. Data shown for C-F represents one out of two independent experiments, n=10 for each group per experiment. ns—not significant.
# To that end Applicants used the aggressive B16-F10 melanoma mouse model. Mice were treated with the small molecule POM-1 to block CD39 activity^38, alone or in combination with anti-TIM3 blocking antibodies (FIG. 26C).
# Mice and tumor transplant. […] B16-F10 cells (0.5×10^6) were intradermally injected into the right flank using a 30 g needle and tumors were measured every 4 days in two dimensions using a digital caliper. Tumor volume (mm^3) was calculated using the following formula V=(L*W^2)/2 (V=volume, L=tumor length, tumor width). […]
structure (smiles),measurement,setting,value
"O.[Na+].[Na+].[Na+].[Na+].[Na+].[Na+].[O]=[W](=[O])([O-])[O-].[O]=[W](=[O])([O-])[O-].[O]=[W](=[O])([O-])[O-].[O]=[W](=[O])=[O].[O]=[W](=[O])=[O].[O]=[W](=[O])=[O].[O]=[W](=[O])=[O].[O]=[W](=[O])=[O].[O]=[W](=[O])=[O].[O]=[W](=[O])=[O].[O]=[W](=[O])=[O].[O]=[W](=[O])=[O] [POM-1, polyoxometalate-1]",tumor growth / tumor size,"B16-F10 intradermal tumors, CD39 inhibitor and/or anti-TIM3, versus untreated",transiently reduced tumor growth until day 14
same,survival on day 30,"B16-F10 tumor-bearing mice, n=10 per group, POM-1 5 mg/kg/day i.p., anti-TIM3 100 μg/dose i.p. every 3 days, from day 4",10%
